Tests used:
HFD-fed C57BL/6J mice = experiment: HFD-induced obesity and NAFLD in C57BL/6J mice treated with CRT0066101; assay type: in vivo, mouse; conditions: 10 mg/kg/day oral
Description: The mouse fat and liver tissues from the experimental mice were harvested after oral administration one and a half month.

[1] = test system: C57BL/6NJ mice fed NASH diet; experiment: NASH diet-induced NASH in C57BL/6NJ mice treated with PKD3 inhibitor; assay type: in vivo, mouse
Description: The NASH diet D09100310, purchased from Research Diet, is a rodent diet with 40 kcal % Fat (mostly palm oil), 20 kcal % fructose and 2% cholesterol.
Furtherly, to investigate the therapeutic potential of PKD3 inhibitor against NASH, we devised an experimental approach to model advanced NAFLD. […] To explore potential mechanisms by which PKD3 inhibitor treatment protect against diet-induced NASH. We applied RNA sequencing of livers collected at endpoint.

[2] = 100 ug/10 g per day oral, 6 weeks
[3] = 100 ug/10 g per day oral, vs vehicle

Description for WD-fed ApoE-/- mice: To further test whether PKD3 inhibitor prevents NAFLD development, we first studied ApoE^−/− mice with Western diet (WD) induced HS, after 8 weeks on WD, we then treat the mice with PKD3 inhibitor by oral administration (low dose; 100 ug/10 g per day) on continue fed WD condition.

## CC[C@@H](N)CNc1ccnc(-c2cc(-c3cnn(C)c3)ccc2O)n1 [CRT0066101]
HFD-fed C57BL/6J mice; one and a half month, vs vehicle
  body weight at end-point (FIG. 2C-2D): dramatically decreased
HFD-fed C57BL/6J mice; vs vehicle
  liver weight (FIG. 2F): significantly reduced
  running distance of physical exercise on treadmill (FIG. 2J): increased
  serum alanine-aminotransferase (ALT) (FIG. 2I): decreased
  serum aspartate aminotransferase (AST) (FIG. 2H): decreased
  size of adipocytes (FIG. 2K): considerably diminished
  weight of fat tissue (FIG. 2L-2N): considerably diminished
HFD-fed C57BL/6J mice; vehicle mice had ballooning, hepatocyte death, severe fibrosis, fatty liver
  liver histology (FIG. 2G): almost normal liver morphology, little hepatic ballooning and fibrosis as well as lipid deposits
HFD-fed C57BL/6J mice; HFD-fed mice
  fast blood glucose (FIG. 2R): decreased
  glucose tolerance, OGTT (FIG. 2P): improved
  insulin sensitivity, ITT (FIG. 2O): improved
  non-fast blood glucose (FIG. 2Q): decreased
[1]; [2]
  BAT size and weight (FIG. 5I-5K): reduction
  NAS (FIG. 5G): significantly decreased
  gFAT size and weight (FIG. 5I-5K): reduction
  hepatic fibrosis (FIG. 5G): significantly decreased
  hepatomegaly induced by NASH diet: markedly attenuated
  iFAT size and weight (FIG. 5I-5K): reduction
  liver fat (FIG. 5G): significantly decreased
  liver size (FIG. 5E-5F): dramatically decreased
  liver surface (FIG. 5E): more smooth
  liver weight (FIG. 5F): dramatically decreased
  nonfasting glucose (FIG. 5H): most potent glucose-lowering effect
[1]; 100 ug/10 g per day oral, 6 weeks, vs vehicle
  body weight at endpoint (FIG. 5C-5D): reduced
[1]; 12 weeks NASH diet, then 100 ug/10 g per day oral for 6 weeks on NASH diet, vs H2O
  body weight curve (FIG. 5B): decreased
WD-fed ApoE-/- mice; [3]
  body fat (FIG. 3H-3K): radically reduced
  body weight at end-point (FIG. 3B): decreased
  liver weight (FIG. 3E): decreased
WD-fed ApoE-/- mice; H&E, Sirius Red, Oil Red O staining
  fibrosis score (FIG. 3F): alleviated
WD-fed ApoE-/- mice; treat vs non-treat mice
  BAT (FIG. 3H-3K): no changes
  GFAT (FIG. 3H-3K): no changes
WD-fed ApoE-/- mice; two months treatment
  hyperlipidemia, serum (FIG. 3G): decreased
WD-fed ApoE-/- mice; yellowish coloration in vehicle mice
  liver coloration (FIG. 3D): not any yellow color

— US20230340491A1, “COMPOSITIONS AND METHODS FOR TREATING METABOLIC AND CARDIOVASCULAR DISEASES” (UNIVERSITY OF ROCHESTER, priority 2020, published 2023)
